Tests used:
[1] = system: glutathione (GSH) levels in the SNpc; experiment: Total glutathione (GSH) level in SNpc using glutathione reductase; type: in vivo, mice; conditions: mean±SD
Method: (§1) C57/BL mice weighted 20-22 g were used. […] The control group was injected with 0.9% saline.
(§2) The formation of thiobarbituric acid reactive species (TBARS) during an acid-heating reaction was determined by the absorbance at 532 nm. The rate of lipid peroxidation was expressed as nmol/mg protein. SOD activity was detected based on its ability to inhibit the superoxide anion free radical of O^2− generated by the xanthine/xanthine oxidase system. The absorbance at 550 nm was monitored and SOD levels were expressed as U/mg protein. The total glutathione (reduced and oxidized form of glutathione) was determined using glutathione reductase. Absorbance was measured at 412 nm using microplate reader. The standard curve was obtained from absorbance of the diluted commercial GSH that was incubated in the mixture as in samples. Results were reported as nmol TNB/mg protein.

[2] = system: TH-immunoresponsive (TH-IR) neurons in the substantia nigra of MPTP-treated mice; experiment: Tyrosine hydroxylase immunohistochemistry: number of TH-IR neurons in substantia nigra; type: in vivo; conditions: mean±SD
Method: as §1
Twenty-four hours later the last injection, mice were anesthetized with chloral hydrate (100 mg/kg). The mice were subjected to thoracotomy and perfusion with ice-cold 0.9% sodium chloride 50 ml, then with 4% paraformaldehyde (PFA) 100 ml in 0.01 M PBS through the left ventricular. After fixation, the brain was post-fixed and then cryoprotected in 30% sucrose for 24 h. The brains were sectioned through the substantia nigra (SN) coronally at 30 um thickness on a cryostat (Leica CM1900, Nussloch, Germany). Sections were collected in 0.01 M PBS and processed free floating. The free floating sections were washed 3 times in Tris-buffered saline (TBS), incubated with H2O2 (3%) for 30 min and blocked with 5% normal goat serum (NGS), 0.2% Triton X-100 in TBS. Sections were incubated for 24 h with primary rabbit anti-TH monoclonal antibody (1:10000) (Watanabe et al., “Protective effects of M, Matsubara, Imai Y, Araki T. neuronal nitric oxide synthase inhibitor in mouse brain against MPTP neurotoxicity: an immunohistological study,” Eur Neuropsychopharmacol. 14:93-104 (2004)). Sections were washed in PBS and incubated for 2 hr at room temperature in secondary antibodies: biotinylated goat anti-rabbit (1:500) diluted in blocking buffer. The sections were incubated for 2 hr at room temperature in horseradish peroxidase labeled avidin work […] solution (1:500). TH immunoreactivity was visualized in SN after incubation in DAB and Nickel sulfate salt for 5-10 min. Sections were mounted on slides, dried, dehydrated in graded ethanol, cleared in xylene, and mounted with DPX mounting medium and coverslip. To test the specificity of the immunostaining, control sections were processed in an identical manner but with the primary antibody omitted. After TH-staining, the image of the sections from the substantia nigra were digitalized with NIS-Elements imaging software (Nikon). The number of neurons was measured in the bilateral substantia nigra.

[3] = system: superoxide dismutase (SOD); experiment: SOD activity in substantia nigra (xanthine/xanthine oxidase system); type: in vivo, mice; conditions: n = 8
Method: as §1, §2

[4] = system: brain-derived neurotrophic factor (BDNF); experiment: BDNF concentration in substantia nigra by ABC-ELISA; conditions: for BDNF concentration in substantia nigra: mean±SD
Method: C57/BL mice weighted 20-22 g were used. Mice were treated with cysteamine and/or induced by MPTP fresh preparations according to the group assignments. Group assignments (n=8/group) were as follows: (1) saline (control) group, (2) MPTP alone (see below), (3) cysteamine (CS) 20 mg/kg/d alone for two weeks, (4) CS 75 mg/kg/d alone for two weeks, (5) CS 20 mg/kg/d for total 14 days and MPTP was given from day 5 to 9, (6) CS 75 mg/kg/d for total 14 days and MPTP was given from day 5 to 9, (7) simultaneous administration of MPTP and CS 20 mg/kg/d for 5 days followed by CS for additional 9 days, (8) simultaneous administration of MPTP and CS 75 mg/kg/d for 5 days followed by CS for additional 9 days. The control group was injected with 0.9% saline. MPTP (20 mg/kg) was intraperitoneally (i.p.) injected into the mice twice daily at an interval of 12 hrs for the initial 2 days and once per day on day 3-5 (Tremblay et al., “Neuroprotective effects of cystamine in aged parkinsonian mice,” Neurobiol Aging. 27:862-870 (2006)). CS (20 mg/kg/d and 75 mg/kg/day were injected alone for 14 days.
After treatment for 14 days, the animals were sacrificed by decapitation. Tissues were quickly removed from the brain on a Petri dish placed on ice using laboratory microscope (Chan et al., “Development of a high resolution three-dimensional surgical atlas of the murine head for strains 129S1/SvImJ and C57Bl/6J using magnetic resonance imaging and micro-computed tomography,” Neuroscience. 144:604-615 (2007)). Bilateral corpus striatum stored at −80° C. until used for HPLC analysis. Bilateral substantia nigra were immediately homogenized using an Ultrasonic Cell Disruptor (Biologics, Model 150 V/T), and which were centrifuged. The supernatant was used for the estimation of various enzyme activities.
The concentration of BDNF was measured by an ABC-ELISA method, according to the manufacturer's protocol (Beyotime Institute of Biotechnology). […] OD value and BDNF concentration are proportional to the standard curve obtained the standard BDNF concentrations. Data are represented as pg/mg protein.

malondialdehyde (MDA) = experiment: Malondialdehyde (MDA) / TBARS lipid peroxidation in substantia nigra; type: in vivo, mice; conditions: n = 8
Method: as §1, §2

[5] = system: striatal dopamine (DA) concentration; experiment: Assay of striatal dopamine (DA) by HPLC; type: in vivo, mice; conditions: mean±SD
Method: as §1
Samples were processed blindly to the treatment conditions for HPLC analysis with electrochemical detector (ECD) using the method by Beyer (Bayer, et al., 2002). Bilaterally corpus striatum tissues were sonicated in 1 ml of pre-colded 0.4 N HClO4. The resulting homogenates were centrifuged twice for 12 min at 12000×g at 4° C. Mobile phase consisting of 0.035 mol/L anhydrous citric acid, 0.09 mol/L without Water-sodium acetate, 0.23 mmol/L sodium alkane sulfonate, 0.13 mmol/L EDTA, 10% methanol (pH4.7). Electrochemical conditions for the experiment were +0.50V. Separation was carried out at a flow rate of 1.0 ml/min. Samples (20 μl) were automatic injected and were quantified by comparison of the area under the curve (AUC) against reference standards. The concentrations of DA were expressed as ng/mg protein of the brain tissue. Protein content was determined in tissue supernatants by the method of Lowry using bovine serum albumin as a standard (Lowry et al., “Protein measurement with the Folin phenol reagent,” J Biol Chem. 193:265-275 (1951)).

[6] = system: reactive oxygen species (ROS); experiment: ROS level in substantia nigra cells by DCDHF-DA fluorescence; type: in vivo, mice; conditions: n = 8
Method: as §1
The ROS level was measured using 2′,7′-dichlorodihydrofluorescein diacetate (DCDHF-DA). DCDHF-DA which is cell-permeable and non-fluorescent, and, in the presence of ROS it is oxidized inside cells and transformed into a fluorescent compound, 2′,7′-dichlorofluorescein (DCDF), which remains trapped within the cell. To measure the ROS level in substantia nigra, isolated cells (10^5/ml) were incubated with 50 μM DCDHF-DA for 40 min at 37° C. and washed twice in PBS. The fluorescence was monitored in microplate reader (Liu, et al., 2009). For each sample, 10,000 cells were acquired. Data were expressed as an average of fluorescence intensity of analyzed cell population (mean fluorescence intensity±SD).

[7] = C20 mg alone (cysteamine 20 mg/kg/d, no MPTP)
[8] = C75 mg alone (cysteamine 75 mg/kg/d, no MPTP)

## CN1CC=C(c2ccccc2)CC1.Cl [MPTP, 1-methyl-4-phenyl-1,2,3,6-tetrahydropyridine hydrochloride]
[1]; MPTP alone, control 3.52±1.44
  level of GSH in the SNpc: 0.55±0.36 nmol TNB/mg protein
[2]; MPTP alone (20 mg/kg i.p., 5 days), control 295.65±47.47
  number of TH-IR nigral neurons: 166.65±58.15
[3]; MPTP alone, substantia nigra, control 52.55 ± 13.35
  SOD: 57.73 ± 9.57 U/mg
[4]; MPTP alone, control 78.34±16.09
  BDNF concentration in substantia nigra: 39.55±7.82 pg/mg protein
Malondialdehyde (MDA); MPTP alone, substantia nigra, control 7.89 ± 0.65
  MDA: 10.84 ± 2.65 nmol/mg
[5]; MPTP alone, control 57.62±12.70
  striatal DA concentration: 26.38±6.47 ng/mg protein
[6]; MPTP alone, substantia nigra, control 13010 ± 261
  ROS: 20207 ± 203 MFI

## NCCS [cysteamine]
[1]; pretreatment with low dose cysteamine (20 mg/kg/d) + MPTP
  level of GSH in the SNpc: 3.16±1.28 nmol TNB/mg protein
[2]; cysteamine 20 mg/kg/d 4 days prior to and along with MPTP (CS20 mg/kg/d+MPTP)
  number of TH-IR nigral neurons: 262.45±32.75
[2]; cysteamine 75 mg/kg/d alone, no MPTP
  number of TH-IR nigral neurons: 271.05±44.93
[2]; cysteamine 75 mg/kg/d pretreatment + MPTP (CS75 mg/kg/d+MPTP)
  number of TH-IR nigral neurons: 172.10±42.69
[2]; simultaneous treatment MPTP+CS20 mg/kg/d
  number of TH-IR nigral neurons: 179.5±68.11
[2]; simultaneous treatment MPTP+CS75 mg/kg/d
  number of TH-IR nigral neurons: 174.05±45.78
[3]; C20 mg + MPTP (pretreatment)
  SOD: 62.11 ± 4.74 U/mg
[3]; [7]
  SOD: 58.88 ± 17.66 U/mg
[3]; C75 mg + MPTP (pretreatment)
  SOD: 58.53 ± 5.82 U/mg
[3]; [8]
  SOD: 59.13 ± 10.66 U/mg
[3]; MPTP + C20 mg (simultaneous)
  SOD: 66.77 ± 4.64 U/mg
[3]; MPTP + C75 mg (simultaneous)
  SOD: 59.58 ± 2.24 U/mg
[4]; high dose cysteamine (75 mg/kg/d) + MPTP
  BDNF concentration in substantia nigra: 55.43±12.15 pg/mg protein
[4]; low dose cysteamine (20 mg/kg/d) + MPTP
  BDNF concentration in substantia nigra: 74.22±7.79 pg/mg protein
[4]; low dose cysteamine (20 mg/kg/d) alone, no MPTP
  BDNF concentration in substantia nigra: 103.36±30.48 pg/mg protein
[4]; simultaneous administration of cysteamine (20 or 75 mg/kg/d) with MPTP, both P>0.05
  reversal of MPTP-induced decrease of BDNF: did not reverse the decrease of BDNF by MPTP
Malondialdehyde (MDA); C20 mg + MPTP (pretreatment)
  MDA: 8.25 ± 0.90 nmol/mg
Malondialdehyde (MDA); [7]
  MDA: 8.82 ± 2.44 nmol/mg
Malondialdehyde (MDA); C75 mg + MPTP (pretreatment)
  MDA: 8.56 ± 1.08 nmol/mg
Malondialdehyde (MDA); [8]
  MDA: 8.90 ± 2.14 nmol/mg
Malondialdehyde (MDA); MPTP + C20 mg (simultaneous)
  MDA: 9.86 ± 0.91 nmol/mg
Malondialdehyde (MDA); MPTP + C75 mg (simultaneous)
  MDA: 9.51 ± 0.57 nmol/mg
[5]; cysteamine 20 mg/kg/d 4 days before and along with MPTP
  striatal DA concentration: 47.96±10.57 ng/mg protein
[5]; cysteamine 75 mg/kg/d pretreatment + MPTP
  striatal DA concentration: 25.65±7.71 ng/mg protein
[5]; cysteamine 75 mg/kg/day alone, no MPTP
  striatal DA concentration: 32.22±4.71 ng/mg protein
[5]; simultaneous treatment cysteamine 20 mg/kg/d during MPTP
  striatal DA concentration: 36.27±16.42 ng/mg protein
[5]; simultaneous treatment cysteamine 75 mg/kg/day during MPTP
  striatal DA concentration: 25.08±8.10 ng/mg protein
[6]; C20 mg + MPTP (pretreatment)
  ROS: 17411 ± 589 MFI
[6]; [7]
  ROS: 17460 ± 779 MFI
[6]; C75 mg + MPTP (pretreatment)
  ROS: 17411 ± 362 MFI
[6]; [8]
  ROS: 17980 ± 419 MFI
[6]; MPTP + C20 mg (simultaneous)
  ROS: 19539 ± 431 MFI
[6]; MPTP + C75 mg (simultaneous)
  ROS: 21976 ± 489 MFI
